Measured values reported in the CheMixHub viscosity set.

Assay: xn = mol fraction of the nth substance listed

Cc1ccccc1C + ClC(Cl)Cl
298.15 K, 101 kPa
Conditions | viscosity [mPa·s]
x2 = 0.262 | 0.739
x2 = 0.3694 | 0.725
x2 = 0.5222 | 0.6941
x2 = 0.5776 | 0.682
x2 = 0.6279 | 0.6691
x2 = 0.6624 | 0.6592
x2 = 0.7082 | 0.6482
x2 = 0.7562 | 0.6348
x2 = 0.7944 | 0.6224

COCCOCCO + ClC=C(Cl)Cl
298.15 K, 101.33 kPa
Conditions | viscosity [mPa·s]
x1 = 0.0091 | 0.537
x1 = 0.0258 | 0.553
x1 = 0.0362 | 0.567
x1 = 0.0477 | 0.582
x1 = 0.0679 | 0.61
x1 = 0.0896 | 0.643
x1 = 0.1146 | 0.685
x1 = 0.1489 | 0.742
x1 = 0.187 | 0.817
x1 = 0.2425 | 0.926
x1 = 0.2811 | 1.009
x1 = 0.3123 | 1.082
x1 = 0.3733 | 1.237
x1 = 0.4192 | 1.356
x1 = 0.4582 | 1.467
x1 = 0.4988 | 1.587
x1 = 0.541 | 1.725
x1 = 0.5789 | 1.849
x1 = 0.608 | 1.948
x1 = 0.6351 | 2.044
x1 = 0.6756 | 2.194
x1 = 0.7372 | 2.433
x1 = 0.7781 | 2.596
x1 = 0.811 | 2.73
x1 = 0.8467 | 2.882
x1 = 0.8774 | 3.015
x1 = 0.9167 | 3.194
x1 = 0.9481 | 3.329
x1 = 0.9733 | 3.449
x2 = 0.0104 | 3.531

CC(C)CCC[C@@H](C)[C@H]1CC[C@H]2[C@@H]3CC=C4C[C@@H](O)CC[C@]4(C)[C@H]3CC[C@]12C + ClCCCl
viscosity [mPa·s], 101.33 kPa
Conditions | 298 K | 303 K | 313 K | 323 K
x1 = 0.00307 | 0.794 | 0.743 | 0.659 | 0.587
x1 = 0.00516 | 0.812 | 0.761 | 0.673 | 0.599
x1 = 0.00648 | 0.825 | 0.772 | 0.682 | 0.608
x1 = 0.00816 | 0.84 | 0.785 | 0.692 | 0.619

c1ccc(Oc2ccccc2)cc1 + NCc1ccccc1
303.15 K, 101 kPa
Conditions | viscosity [mPa·s]
x2 = 0.1488 | 2.696
x2 = 0.2823 | 2.409
x2 = 0.4028 | 2.179
x2 = 0.512 | 1.991
x2 = 0.6114 | 1.839
x2 = 0.7024 | 1.714
x2 = 0.786 | 1.613
x2 = 0.8629 | 1.531
x2 = 0.934 | 1.465

Cc1ccc(Cl)cc1 + Nc1cccc(Cl)c1
viscosity [mPa·s], 100 kPa
Conditions | x2 = 0.0757 | x2 = 0.1649 | x2 = 0.2579 | x2 = 0.3519 | x2 = 0.4697 | x2 = 0.5707 | x2 = 0.6749 | x2 = 0.7826 | x2 = 0.8935
303.15 K | 1.052 | 1.369 | 1.698 | 2.029 | 2.441 | 2.791 | 3.15 | 3.518 | 3.895
308.15 K | 0.968 | 1.253 | 1.549 | 1.847 | 2.217 | 2.531 | 2.853 | 3.184 | 3.521
313.15 K | 0.899 | 1.152 | 1.414 | 1.677 | 2.003 | 2.28 | 2.564 | 2.854 | 3.15
318.15 K | 0.823 | 1.045 | 1.273 | 1.502 | 1.786 | 2.027 | 2.274 | 2.526 | 2.782

C=CCC[n+]1ccn(C)c1.[Br-] + O
viscosity [mPa·s], 101.33 kPa
Conditions | x1 = 0.0009034 | x1 = 0.00189 | x1 = 0.003585 | x1 = 0.005487 | x1 = 0.007167 | x1 = 0.008848
293.15 K | 1.018 | 1.037 | 1.071 | 1.102 | 1.136 | 1.164
298.15 K | 0.904 | 0.92 | 0.95 | 0.977 | 1.007 | 1.031
303.15 K | 0.809 | 0.824 | 0.85 | 0.874 | 0.901 | 0.922
308.15 K | 0.73 | 0.742 | 0.765 | 0.788 | 0.811 | 0.83
313.15 K | 0.662 | 0.673 | 0.694 | 0.714 | 0.735 | 0.753

CCCCC(CC)COC(=O)c1ccc(C(=O)OCC(CC)CCCC)c(C(=O)OCC(CC)CCCC)c1 (configuration not stated) + O
101 kPa
Conditions | viscosity [mPa·s]
303.14 K, x2 = 0.019 | 151.1
303.15 K, x2 = 0.0111 | 152.7
303.15 K, x2 = 0.0169 | 151.2
303.16 K, x2 = 0.00366 | 153.9
303.16 K, x2 = 0.00372 | 153.9
303.16 K, x2 = 0.00843 | 153.1
303.16 K, x2 = 0.0124 | 152.2
303.16 K, x2 = 0.0155 | 151.6
303.16 K, x2 = 0.0164 | 151.4

CCCCCC(=O)[O-].[NH3+]CCO + O
viscosity [mPa·s], 101 kPa
Conditions | x1 = 0.0053 | x1 = 0.0114 | x1 = 0.0176 | x2 = 0.9074 | x2 = 0.9364 | x2 = 0.9583 | x2 = 0.9753
293.15 K | 1.44 | 1.692 | 1.82 | 12.85 | 6.672 | 3.858 | 2.546
298.15 K | 1.26 | 1.5 | 1.68 | 10.73 | 5.73 | 3.306 | 2.04
303.15 K | 1.11 | 1.35 | 1.494 | 9.048 | 4.92 | 2.868 | 1.806

CCN1CCCC1=O + O
101 kPa
Conditions | viscosity [mPa·s]
298 K, x1 = 0.5 | 3.855
323 K, x1 = 0.9 | 1.435

CCn1cc[n+](C)c1.F[B-](F)(F)F + O
Conditions | viscosity [mPa·s]
293.15 K, 101 kPa, x2 = 0.3047 | 19.25

COCCOCCO + O
viscosity [mPa·s]
Conditions | 293.15 K | 303.15 K | 308.15 K | 313.15 K | 323.15 K
101.3 kPa, x1 = 0.0164 | 1.374 | 1.061 | – | 0.8527 | 0.6962
101.3 kPa, x1 = 0.0361 | 1.895 | 1.421 | – | 1.108 | 0.8862
101.3 kPa, x1 = 0.0603 | 2.602 | 1.916 | – | 1.445 | 1.131
101.3 kPa, x1 = 0.0909 | 3.571 | 2.525 | – | 1.858 | 1.441
101.3 kPa, x1 = 0.1298 | 4.594 | 3.232 | – | 2.367 | 1.782
101.3 kPa, x1 = 0.1836 | 5.705 | 3.941 | – | 2.848 | 2.114
101.3 kPa, x1 = 0.2589 | 6.431 | 4.445 | – | 3.193 | 2.366
101.3 kPa, x1 = 0.3739 | 6.442 | 4.514 | – | 3.269 | 2.451
101.3 kPa, x1 = 0.4594 | 6.083 | 4.337 | – | 3.174 | 2.412
101.3 kPa, x1 = 0.5736 | 5.544 | 4.024 | – | 2.994 | 2.296
101.3 kPa, x1 = 0.6641 | 5.108 | 3.753 | – | 2.849 | 2.204
101.3 kPa, x1 = 0.7397 | 4.791 | 3.554 | – | 2.724 | 2.122
101.3 kPa, x1 = 0.8287 | 4.441 | 3.341 | – | 2.594 | 2.031
101.3 kPa, x1 = 0.8794 | 4.286 | 3.239 | – | 2.511 | 1.987
101.3 kPa, x1 = 0.9331 | 4.149 | 3.143 | – | 2.455 | 1.955
101.33 kPa, x1 = 0.013 | – | – | 0.914 | – | –
101.33 kPa, x1 = 0.0426 | – | – | 1.445 | – | –
101.33 kPa, x1 = 0.058 | – | – | 1.73 | – | –
101.33 kPa, x1 = 0.0793 | – | – | 2.131 | – | –
101.33 kPa, x1 = 0.0999 | – | – | 2.476 | – | –
101.33 kPa, x1 = 0.1286 | – | – | 2.872 | – | –
101.33 kPa, x1 = 0.1865 | – | – | 3.333 | – | –
101.33 kPa, x1 = 0.3088 | – | – | 3.876 | – | –
101.33 kPa, x1 = 0.4518 | – | – | 3.836 | – | –
101.33 kPa, x1 = 0.5434 | – | – | 3.625 | – | –
101.33 kPa, x1 = 0.6518 | – | – | 3.448 | – | –
101.33 kPa, x1 = 0.7694 | – | – | 3.235 | – | –
101.33 kPa, x1 = 0.9087 | – | – | 2.996 | – | –
101.33 kPa, x2 = 0.0109 | – | – | 2.874 | – | –
